This note sets out measurements from the METLIN SMRT retention time set (Domingo-Almenara et al. 2019).

The nature of this data set: gradient 5% acetonitrile 3 min, to 50% in 2 min, to 85% in 15 min, held 3 min, 100 µL/min. The following applies: column: Zorbax Extend-C18 2.1 x 50 mm; eluents: water / acetonitrile, 0.1% formic acid. The essentials: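 Over 3 months, pure standards in mixtures of ~100 molecules were run by HPLC coupled to a quadrupole time-of-flight mass spectrometer in positive and negative ionization mode. The column was a Zorbax Extend-C18 (2.1 × 50 mm, 1.8 μm) at 100 μL/min, eluted with water and acetonitrile each holding 0.1% formic acid, with 40 μL dead and 900 μL dwell volumes. Retention time was determined from adduct peaks chosen by software and checked manually.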
In turn, `O=c1[nH]c2ccc(S(=O)(=O)Nc3cccc(C(F)(F)F)c3)cc2[nH]1` yielded an RP-LC retention time of 664 s.
`Cc1c(-c2noc(C(=O)NCCN3CCCC3)n2)oc2c(C)cccc12` had an RP-LC retention time of 668 s.
The compound `Cc1cccc(NC(=O)N2CCC3(CC2)NC(=O)c2cc(F)ccc2N3C)c1` showed an RP-LC retention time of 748 s.
For `NC(=O)c1cnc(-c2ccccc2)n(CC(=O)Nc2ccccc2Br)c1=O` the value was 740 s; for `Cc1cccc(-n2c(=O)c3sccc3n(Cc3nc(-c4ccccc4C)no3)c2=O)c1`, 1070 s.
Turning to `Cc1nc(-c2cccnc2)nc2c1CCC(=O)N2Cc1ccncc1`, the RP-LC retention time amounted to 554 s.
For `O=C(NCc1csc(C2CCCN(C(=O)c3ccccc3F)C2)n1)C1CCC1` (stereo not given) the value was 727 s.
With `CCNC(=O)N1CC(Oc2ccc(-c3nc(C)no3)cc2)C1` the figure was 688 s.
With `O=C(Nc1cccc(-c2nnc3n2CCCC3)c1)c1ccoc1` the figure was 640 s; with `COc1cc(OC)c(NC(=O)N2CCC3(CC2)N=C(c2cccc(F)c2)C(=O)N3)cc1Cl`, 886 s; with `CCCNC(=O)C1CCCN(c2ccc(SCC(=O)Nc3cc(C)c(Cl)cc3OC)nn2)C1` (stereo not given), 838 s.
As to `CCOc1ccccc1NC(=O)N1C[C@@H](F)C[C@H]1C(=O)N1CCc2ccccc2C1`, the RP-LC retention time amounted to 819 s.
As for `CCc1cccc(-n2nnnc2N2CCN(C(=O)Nc3ccc(C)c(F)c3)CC2)c1`, the RP-LC retention time amounted to 981 s.
With `CCOc1ccc2cccc(NC(=O)c3cnccn3)c2n1` the figure was 1080 s; with `CC(C)NC(=O)CSc1nccnc1N1CCN(c2ccccc2)CC1`, 867 s.
`CCC(=O)N1CCc2ccccc2C1C(=O)N1CCN(c2ccccc2)CC1` (stereo not given) returned an RP-LC retention time of 852 s.
Compound `Cc1noc(C)c1-c1ccc(S(=O)(=O)N2CCN(c3cccc(Cl)c3)CC2)cc1` gave an RP-LC retention time of 1160 s.
With `CCOC(=O)N1CCN(c2cc(C(=O)O)c3cc(NC(=O)c4cccc(C)c4)ccc3n2)CC1` the figure was 649 s; with `COc1cc(NC(=O)NCCc2nc3cccnc3n2-c2ccccc2)cc(OC)c1OC`, 682 s; with `Cc1cc(C(=O)N2CCCC(c3nnc(-c4cccs4)o3)C2)no1` (stereo not given), 694 s.
The compound `O=C([C@@H]1C[C@H](Oc2ccccc2)CN1C(=O)CCCc1c[nH]c2ccccc12)N1CCCC1` came in with an RP-LC retention time of 865 s.
For `CCN1C(=O)CCc2cc(NS(=O)(=O)c3ccc4c(c3)OCCO4)ccc21` the value was 794 s; for `Cc1nnc(-c2coc(S(=O)(=O)N3CCN(c4ccccn4)CC3)c2)o1`, 606 s; for `CN(C)c1ccccc1CN1CCCN(Cc2ccccc2N(C)C)C1c1ccncc1`, 711 s.
With `CCn1c(=O)c2ccn(CC(=O)Nc3ccc(Cl)cc3)c2n(CC)c1=O` the figure was 747 s; with `COc1ccc(-c2nc(C3CC(=O)N(c4ccc(F)c(Cl)c4)C3)no2)cc1` (stereo not given), 1050 s; with `CCC1CN(S(=O)(=O)c2cc(-c3cc(C)no3)cs2)c2cc(Cl)ccc2O1` (stereo not given), 1240 s.
For `COc1ccc2nc(NC3=NCN(CCc4ccc(OC)c(OC)c4)CN3)nc(C)c2c1` the value was 709 s; for `Cc1nc(C)c(C(=O)N2C[C@H]3C[C@H](C2)[C@H]2CCCC(=O)N2C3)s1`, 755 s.
Compound `CCOC(=O)c1sc(NC(=O)C(C)(C)C)nc1-c1ccccc1` displayed an RP-LC retention time of 592 s.
With `O/N=C(/c1ccccc1)c1ccc2c3c(cccc13)CC2` the figure was 1140 s; with `Cc1ccccc1CN1CCN(CC(=O)Nc2cccc(Cl)c2C)C(=O)C1=O`, 792 s; with `O=C(Cn1cnc2c(sc3nc(-c4ccccc4)ccc32)c1=O)Nc1ccc(Br)cc1`, 1120 s.
In turn, `CCOC(=O)c1c(C)[nH]c(NC(=O)N2CCN(c3ccc(OC)cc3)CC2)c1C` came in with an RP-LC retention time of 703 s.
The compound `O=C1c2ccccc2C(=O)c2c(NCCc3ccc(O)cc3)ccc(NCCc3ccc(O)cc3)c21` showed an RP-LC retention time of 1180 s.
The compound `Cn1c(=O)n(Cc2ccc(Br)cc2F)c(=O)c2cnc(-c3cccnc3)nc21` had an RP-LC retention time of 968 s.
Consider `Cc1nc2cc(N3CCC(C(=O)Nc4ccc5c(c4)OCO5)CC3)cnc2nc1C`, for which the RP-LC retention time is 695 s.
With `Cc1ccc2c(c1)N(S(C)(=O)=O)CCC(C(=O)Nc1ccc(F)c(F)c1)O2` (stereo not given) the figure was 960 s; with `CCN(CC)C(=O)c1ccc2c(c1)N(Cc1ccc(F)cc1)C(=O)CO2`, 826 s.
With `Cc1ccc(-c2cn3c(CC(=O)NCc4cccs4)csc3n2)cc1C` the figure was 799 s.
With `COc1ccc(CCNc2nc(N3CCc4cc(OC)c(OC)cc4C3)c3cc(OC)c(OC)cc3n2)cc1OC` the figure was 833 s; with `Cc1ccccc1C(=O)Nc1c(-c2ccccc2)nc2ccccn12`, 634 s; with `O=C(c1ccco1)N1CCCC(OCc2nc(C3CC3)no2)C1` (stereo not given), 732 s.
Compound `COC(=O)c1cccc(NC(=O)N2CCSc3ncccc32)c1` registered an RP-LC retention time of 739 s.
For `COCc1nc2cccnc2n1C1CCN(C(=O)Nc2ccc(Cl)cc2)CC1` the value was 744 s; for `CCC(C)Nc1nc(N(C)C)nc(-n2cnc(SC)n2)n1` (stereo not given), 942 s.
With `O=C(Cc1cccc(Cl)c1)Nc1ccsc1-c1nnc(C2CC2)o1` the figure was 1240 s; with `CC1=C(c2ccc(F)cc2)S(=O)(=O)N=C1N1CCCN(C(=O)c2ccncc2)CC1`, 649 s.
For the compound `CC(=O)N1CCc2c([nH]c3ccccc23)C12C(=O)N(CC(C)C)c1ccc(Br)cc12` (stereo not given), the RP-LC retention time was found to be 974 s.
Take `CCCn1c(C)cnc1C1CN(S(=O)(=O)Cc2ccccc2)C1`: the RP-LC retention time stood at 652 s.
For `Cc1nccn1Cc1nc(-c2ccc(Br)cc2)no1` the value was 663 s.
For `Cc1cccc(CNC(=O)C2CCN(Cc3cn(C)c4ccc(Cl)cc34)CC2)c1` the value was 757 s; for `C=CCNC(=O)C1COc2ccccc2O1` (stereo not given), 630 s.
For `COc1ccc(S(=O)(=O)N2CCC(c3noc(-c4ccccn4)n3)C2)cc1` (stereo not given) the value was 802 s; for `Cc1ccc(-c2nnc(SCc3cccc(Cl)c3)o2)cc1`, 1210 s.
`COc1cc(NC(=O)N2CCC(C)(C(=O)NCc3ccc(F)cc3)CC2)cc(OC)c1OC` registered an RP-LC retention time of 737 s.
For `CCc1ccccc1NC(=O)c1sc(C)nc1C` the value was 778 s; for `COc1ccc(OC)c2sc(NC(=O)C3CCCCN3S(C)(=O)=O)nc12` (stereo not given), 793 s.
`CCc1cc(-c2csc(S(=O)(=O)NCc3ccc(OC(C)C)cc3)c2)on1` displayed an RP-LC retention time of 1070 s.
For `O=C(NCCOc1ccc(F)cc1)c1cc(-c2cccs2)n(C2CCS(=O)(=O)C2)n1` (stereo not given) the value was 793 s; for `CCN1c2ccc(F)cc2C(=O)NC12CCN(C(=O)c1ccc(OC)cc1C)CC2`, 802 s; for `CCC(=O)N1CCc2cc(C(=O)N3CCN(Cc4ccc5c(c4)OCO5)CC3)ccc21`, 611 s.
Compound `Cc1cc(C)c(-c2noc(C)n2)c(NC(=O)c2cccc(Cl)c2)n1` registered an RP-LC retention time of 827 s.
For `N#Cc1cccc(NC(=O)Cn2nc3n(c2=O)CCCC3)c1` the value was 638 s; for `O=C(C1COc2ccccc2O1)N1CCCC(COCc2ccccc2)C1` (stereo not given), 1030 s; for `CCCC(=O)Nc1ccc2c(c1)Sc1ncccc1C(=O)N2CC`, 724 s.
With `Cc1cccc(NC(=O)N2CCc3nc(C)ncc3C2)c1` the figure was 656 s.
For `CCc1cnc2c(c1SCC(=O)N(C)c1ccccc1)c(=O)n(C)c(=O)n2C` the value was 800 s; for `CN1CCN(C(=O)c2nn(-c3ccc(Cl)cc3)c3c(=O)n(C)cnc23)CC1`, 611 s; for `CC(Cc1ccco1)NC(=O)c1ccc2ccnc(N3CCN(c4ccccc4)CC3)c2c1` (stereo not given), 806 s.
Take `CCc1ccc(CNC(=O)CCC2CCCN(S(=O)(=O)c3ccccc3C)C2)cc1` (stereo not given): the RP-LC retention time is 1070 s.
With `CCCN1C(=O)CN(C2CCCCC2)C(=O)C1c1ccc(OC)c(OC)c1` (stereo not given) the figure was 777 s; with `CCCCN(C)C(=O)C1CCN(c2cncnc2N2CCOCC2)CC1`, 614 s; with `CC(=O)Nc1c(C)cc(OCC(=O)O)cc1C`, 649 s.
The compound `CCc1nnc2nc(N3CCN(C(=O)c4cccs4)CC3)cc(C)n12` returned an RP-LC retention time of 592 s.
With `Cc1ccc(N2CCC(NC(=O)c3cccc(F)c3)C2=O)cc1C` (stereo not given) the figure was 891 s; with `COc1ccc(-c2ncc3c(=O)n(Cc4ccc(Br)cc4F)c(=O)n(C)c3n2)cc1`, 1290 s.
For `Cc1ccsc1C(=O)NCC(=O)N1CCCc2ccccc21`, the RP-LC retention time amounted to 832 s.
For `Cn1cc(S(=O)(=O)N2CCC(C(=O)NC3CCCCC3)CC2)cc1C(=O)N1CCCC1` the value was 736 s.
With `Cc1ccn2c(NC(=O)CC(C)(C)C)c(-c3ccc(F)cc3)nc2c1` the figure was 669 s.
